Reference: US10556905B2, “Processes for preparing a diazabicyclooctane compound” (priority 2012, dated 2020)
pIC50: −log10 of the molar value. In brackets after ≈: the same amount, converted by molar mass. Like-named read-outs stand apart in the source and are kept apart here.

How the values were obtained:
[1] = tested on: sensitive tuberculosis (H37Rv); assay: Anti-tubercle bacillus activity, liquid medium dilution MIC; type: cell-based; details: for MIC: Mycobacterium tuberculosis, 168 h, alone, 7 days at 37° C., read-out: antibacterial activity (MIC) of β-lactam agent alone
[2] = target: T1, OXA-2 (Escherichia coli, UniProt P0A1V9); assay: biochemical; set-up: species or system P. aeruginosa
T1 construct: AmpC, TEM-1, KPC-2 or OXA-2 domain excluding signal peptide was amplified with PCR; made in house; host or cells: Escherichia coli BL21 (DE3), pET-28b(+)

[3] = target: T2, AmpC (Pseudomonas aeruginosa, UniProt P24735); assay: biochemical
T2 construct: AmpC, TEM-1, KPC-2 or OXA-2 domain excluding signal peptide was amplified with PCR; made in house; host or cells: Escherichia coli BL21 (DE3), pET-28b(+)

[4] = target: T3, TEM-1 (Escherichia coli, UniProt P62593); assay: β-Lactamase inhibitory activity (nitrocefin hydrolysis), TEM-1; type: biochemical; details: TEM-1 0.1 nM, 100 μM nitrocefin, pre-incubation 30° C. 10 minutes
T3 construct: AmpC, TEM-1, KPC-2 or OXA-2 domain excluding signal peptide was amplified with PCR; made in house; host or cells: Escherichia coli BL21 (DE3), pET-28b(+)
Procedure, shortened: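 Recombinant TEM-1 (signal peptide removed), expressed in E. coli BL21(DE3), hydrolysing 100 μM nitrocefin (final) in 50 mM phosphate pH 7.0 with 2.5% DMSO and 10 μg/mL BSA. Incubated 20 min at 30° C; A492 read. Potency given as bands A (<0.1 μM) to E (≥10 μM).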

[5] = target: T4, KPC-2 (Klebsiella pneumoniae, UniProt Q9F663); assay: β-Lactamase inhibitory activity (nitrocefin hydrolysis), KPC-2; type: biochemical; details: KPC-2 0.5 nM, 100 μM nitrocefin, pre-incubation 30° C. 10 minutes
T4 construct: AmpC, TEM-1, KPC-2 or OXA-2 domain excluding signal peptide was amplified with PCR; made in house; host or cells: Escherichia coli BL21 (DE3), pET-28b(+)

[6] = tested on: E. coli MSC19503; assay: microbe, parasite or virus in culture; type: cell-based; details: Escherichia coli, alone, CTX-M-15 (ESBL) and OXA-1 producing E. coli, agar plate dilution, read-out: antibacterial activity (MIC) of PIPC alone
[7] = tested on: K. pneumoniae ATCCBAA-1705; assay: microbe, parasite or virus in culture; details: Klebsiella pneumoniae, ATCCBAA1705, read-out: antibacterial activity (MIC) of PIPC alone
[8] = tested on: P. aeruginosa ATCCBAA-47CR; assay: microbe, parasite or virus in culture; type: cell-based; details: Pseudomonas aeruginosa, ATCCBAA47CR; alone; AmpC constitutively-expressing P. aeruginosa; agar plate dilution; read-out: antibacterial activity (MIC) of PIPC alone

T4 sequence (Q9F663 25-293, looked up): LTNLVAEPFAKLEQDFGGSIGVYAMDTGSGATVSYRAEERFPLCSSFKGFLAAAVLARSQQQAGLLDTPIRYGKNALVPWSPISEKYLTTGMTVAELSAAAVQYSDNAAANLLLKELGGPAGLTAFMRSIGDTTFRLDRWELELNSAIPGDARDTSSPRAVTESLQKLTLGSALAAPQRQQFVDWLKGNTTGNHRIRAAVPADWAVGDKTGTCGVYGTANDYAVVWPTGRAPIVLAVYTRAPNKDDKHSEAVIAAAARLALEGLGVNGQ
T2 sequence (P24735 27-397): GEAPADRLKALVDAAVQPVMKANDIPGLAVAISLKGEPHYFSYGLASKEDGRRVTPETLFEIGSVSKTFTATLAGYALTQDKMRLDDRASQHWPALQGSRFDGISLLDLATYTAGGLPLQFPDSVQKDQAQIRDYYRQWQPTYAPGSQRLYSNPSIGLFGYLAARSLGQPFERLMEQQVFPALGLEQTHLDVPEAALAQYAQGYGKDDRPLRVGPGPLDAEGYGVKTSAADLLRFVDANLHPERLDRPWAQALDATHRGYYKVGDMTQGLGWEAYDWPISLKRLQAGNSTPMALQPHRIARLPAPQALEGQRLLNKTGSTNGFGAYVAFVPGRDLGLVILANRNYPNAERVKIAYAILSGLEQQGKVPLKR
T3 sequence (P62593 24-286 limits assumed): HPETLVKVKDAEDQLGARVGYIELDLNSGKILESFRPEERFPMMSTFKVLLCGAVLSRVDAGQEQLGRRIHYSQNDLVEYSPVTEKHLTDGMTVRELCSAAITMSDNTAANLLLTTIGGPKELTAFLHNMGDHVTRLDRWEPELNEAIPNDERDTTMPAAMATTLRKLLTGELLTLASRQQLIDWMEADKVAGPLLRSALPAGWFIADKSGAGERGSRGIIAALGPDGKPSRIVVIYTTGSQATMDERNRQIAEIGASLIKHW
T1 sequence (P0A1V9 22-275): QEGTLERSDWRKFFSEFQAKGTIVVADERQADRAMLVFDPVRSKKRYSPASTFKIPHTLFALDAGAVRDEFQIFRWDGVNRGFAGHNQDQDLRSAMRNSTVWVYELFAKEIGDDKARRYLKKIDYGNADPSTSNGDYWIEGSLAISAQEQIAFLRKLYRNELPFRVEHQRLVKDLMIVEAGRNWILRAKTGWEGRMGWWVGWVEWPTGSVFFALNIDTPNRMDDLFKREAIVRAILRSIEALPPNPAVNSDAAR

SMILES: C[C@@H](O)[C@H]1C(=O)N2C(C(=O)O)=C(S[C@@H]3CN[C@H](C(=O)N(C)C)C3)[C@H](C)[C@H]12 [MEPM, meropenem, reference compound]
- MIC [1]: 1 mg/L (≈ 2.61 µM)

SMILES: NCCONC(=O)[C@@H]1CC[C@@H]2CN1C(=O)N2OS(=O)(=O)O [Example 59, (2S,5R)—N-(2-Aminoethoxy)-7-oxo-6-(sulfooxy)-1,6-diazabicyclo[3.2.1]octane-2-carboxamide]
- pIC50 ([2]; OXA-2 2 nM, 100 μM nitrocefin, pre-incubation 30° C. 10 minutes, read-out: β-Lactamase inhibitory activity OXA-2 (IC50)): 5.52 to 6.00
- pIC50 [3]: 6.00 to 7.00
- pIC50 [4]: > 7.00
- pIC50 [5]: 6.00 to 7.00
- antibacterial activity (MIC) of ABPC in combinatorial use ([1]; ABPC + 4 μg/mL compound): 2 mg/L
- antibacterial activity (MIC) of AMPC in combinatorial use ([1]; AMPC + 4 μg/mL compound): 2 mg/L
- antibacterial activity (MIC) of BIPM in combinatorial use ([1]; BIPM + 4 μg/mL compound): 1 mg/L
- antibacterial activity (MIC) of MEPM in combinatorial use ([1]; MEPM + 4 μg/mL compound): 0.5 mg/L
- antibacterial activity (MIC) of TBPM in combinatorial use ([1]; TBPM + 4 μg/mL compound): 0.25 mg/L

SMILES: C[C@@H](O)[C@H]1C(=O)N2C(C(=O)[O-])=C(SC3Cn4cnc[n+]4C3)[C@H](C)[C@H]12 (stereo partly drawn) [BIPM, biapenem, reference compound]
- MIC [1]: 1 mg/L (≈ 2.85 µM)

SMILES: CC1(C)S[C@@H]2[C@H](NC(=O)[C@H](N)c3ccccc3)C(=O)N2[C@H]1C(=O)O [ABPC, ampicillin, reference compound]
- MIC [1]: 16 mg/L (≈ 45.8 µM)

SMILES: C[C@@H](O)[C@H]1C(=O)N2C(C(=O)O)=C(SC3CN(C4=NCCS4)C3)[C@H](C)[C@H]12 [TBPM, tebipenem, reference compound]
- MIC [1]: 0.5 mg/L (≈ 1.3 µM)

SMILES: CCN1CCN(C(=O)N[C@@H](C(=O)N[C@@H]2C(=O)N3[C@@H]2SC(C)(C)[C@@H]3C(=O)O)c2ccccc2)C(=O)C1=O [PIPC, piperacillin]
- MIC [6]: > 128 mg/L
- MIC [7]: > 128 mg/L
- MIC [8]: 64 mg/L (≈ 124 µM)

SMILES: CONC(=O)[C@@H]1CC[C@@H]2CN1C(=O)N2OS(=O)(=O)O [Example 56, Sodium (2S,5R)—N-methoxy-7-oxo-6-(sulfooxy)-1,6-diazabicyclo[3.2.1]octane-2-carboxamide]
- pIC50 [2]: 5.52 to 6.00
- pIC50 [3]: 6.00 to 7.00
- pIC50 [4]: > 7.00
- pIC50 [5]: 6.00 to 7.00

SMILES: CC1(C)S[C@@H]2[C@H](NC(=O)[C@H](N)c3ccc(O)cc3)C(=O)N2[C@H]1C(=O)O [AMPC, amoxicillin, reference compound]
- MIC [1]: 16 mg/L (≈ 43.8 µM)

SMILES: O=C(NOCC(=O)N1CCOCC1)[C@@H]1CC[C@@H]2CN1C(=O)N2OS(=O)(=O)O [Example 91, Sodium (2S,5R)—N-[2-(morpholin-4-yl)-2-oxoethoxy]-7-oxo-6-(sulfooxy)-1,6-diazabicyclo[3.2.1]octane-2-carboxamide]
- pIC50 [2]: 6.00 to 7.00
- pIC50 [3]: > 7.00
- pIC50 [4]: > 7.00
- pIC50 [5]: > 7.00

SMILES: O=C(NOCCN1CCCC1=O)[C@@H]1CC[C@@H]2CN1C(=O)N2OS(=O)(=O)O [Example 93, Sodium (2S,5R)-7-oxo-N-[2-(2-oxopyrrolidin-1-yl)ethoxy]-6-(sulfooxy)-1,6-diazabicyclo[3.2.1]octane-2-carboxamide]
- pIC50 [2]: 6.00 to 7.00
- pIC50 [3]: > 7.00
- pIC50 [4]: > 7.00
- pIC50 [5]: 6.00 to 7.00

SMILES: O=C(NOCC1CCC1)[C@@H]1CC[C@@H]2CN1C(=O)N2OS(=O)(=O)O [Example 58, Sodium (2S,5R)—N-(cyclobutylmethoxy)-7-oxo-6-(sulfooxy)-1,6-diazabicyclo[3.2.1]octane-2-carboxamide]
- pIC50 [2]: 6.00 to 7.00
- pIC50 [3]: > 7.00
- pIC50 [4]: > 7.00
- pIC50 [5]: > 7.00

SMILES: CCN(CC)C(=O)NNC(=O)[C@@H]1CC[C@@H]2CN1C(=O)N2OS(=O)(=O)O [Example 48, Sodium N,N-diethyl2-{[(2S,5R)-7-oxo-6-(sulfooxy)-1,6-diazabicyclo[3.2.1]oct-2-yl]carbonyl}hydrazinecarboxamide]
- pIC50 [2]: 5.00 to 5.52
- pIC50 [3]: > 7.00
- pIC50 [4]: 6.00 to 7.00
- pIC50 [5]: 6.00 to 7.00

SMILES: CN(C)C(=O)NNC(=O)[C@@H]1CC[C@@H]2CN1C(=O)N2OS(=O)(=O)O [Example 47, Sodium N,N-dimethyl2-{[(2S,5R)-7-oxo-6-(sulfooxy)-1,6-diazabicyclo[3.2.1]oct-2-yl]carbonyl}hydrazinecarboxamide]
- pIC50 [2]: 5.00 to 5.52
- pIC50 [3]: 6.00 to 7.00
- pIC50 [4]: > 7.00
- pIC50 [5]: 6.00 to 7.00

SMILES: O=C(NNC(=O)N1CCOCC1)[C@@H]1CC[C@@H]2CN1C(=O)N2OS(=O)(=O)O [Example 50, Sodium (2S,5R)—N′-(morpholin-4-ylcarbonyl)-7-oxo-6-(sulfooxy)-1,6-diazabicyclo[3.2.1]octane-2-carbohydrazide]
- pIC50 [2]: 5.00 to 5.52
- pIC50 [3]: > 7.00
- pIC50 [4]: 6.00 to 7.00
- pIC50 [5]: 6.00 to 7.00
